Marks after values point to notes of the source that are not given here.
What was measured:
Format in all cases: cell-based
[1] = tested on: in vivo fertilized mouse eggs; assay: Completion of meiosis (2PB extrusion) under Ca2+ chelation and cytoskeleton inhibitors
Protocol: (§1) F1 (C57B16×CBA) mouse females were superovulated and oocytes and zygotes recovered as described previously^44. Parthenogenetic activation was performed by incubating eggs for 4 hrs in M2 medium without Ca^2+/Mg^2+ supplemented with 10 mM SrCl2. Germinal vesicle (GV) oocytes were isolated from ovaries to M2 medium supplemented with 150 μg/ml dibutyryl cyclic AMP (dbcAMP). Epididymal sperm was isolated from F1 males and capacitated in 0.5 ml of fertilization medium with 4 mg/ml BSA^45. Embryos were imaged in KSOM medium as described previously^44. In some experiments prior to imaging embryos were pre-incubated for 20 min with 30 μM BAPTA-AM (to chelate Ca^2+), 5 μg/ml nocodazole (to depolimerize microtubules), 2 μg/ml cytochalasin D (to depolimerize F-actin), 10 μM taxol (to stabilize microtubules) or 100 nM jasplakinolide (to stabilize F-actin) and then transferred to pure KSOM (BAPTA-treated embryos) or to KSOM containing the respective drug (rest of the treated embryos). Embryos treated with ML-7 (to inhibit myosin light chain kinase (MLCK) and therefore myosin II activation^46) were pre-incubated with 25 μM ML-7 for 20 mins and then imaged in a dish containing KSOM with 25 μM ML-7 without a mineral oil overlay which would have absorbed ML-7.
(§2) In most experiments zygotes were imaged in a single plane under an inverted confocal microscope (Zeiss LSM 510 Meta) at 37.5° C. and 5% CO2. DIC images were captured every 10 s using a 633 nm HeNe laser. To measure free Ca^2+ ion concentration, embryos were pre-incubated for 20 min in 5 μM FuraRed-AM (Invitrogen) and FuraRed and DIC images were obtained simultaneously with a 488 nm argon laser. In experiments in which correlations between cytoplasmic movements and developmental potential of the embryos were examined zygotes were imaged in a single plane in transmitted light under standard non-confocal microscopes (Zeiss Axiovert or Deltavision) every 10 s for 2.5 hrs. In experiments in which cytoplasmic movements in the cortex and central parts of zygotes were compared embryos were imaged on the Deltavision microscope in 11 planes every 6 μm, every 10 s for 3 hrs. Intensity of FuraRed fluorescence was measured using ImageJ software. Images were analyzed using custom written software in MATLAB (The Mathworks Inc., Natick, Mass., USA) using algorithms adapted from MatPIV v1.6.1^47. The algorithm was based on that used in PIV, a standard analysis technique used extensively in fluid dynamics^21-24 that involves cross-correlating image sub-regions between sequential pairs of images. In the PIV analysis each image was divided into square interrogation regions and the cross-correlation coefficient distribution was calculated within a larger region in the next image in the sequence. The peak of the cross-correlation coefficient distribution gave the most likely location in the second image of the material in the interrogation region in the first image. This was then used to calculate the displacement vector over the time between images (FIG. 1A). As the displacement of the pattern of contrast of an area of pixels is being measured over many pixels it is possible to accurately measure sub-pixel movements with this technique^22, 24, 48.

fertilized mouse eggs [2] = assay: PIV analysis of cytoplasmic movements (speed-peaks, after-movements, basal speed) in inhibitor-treated zygotes; details: for decrease in basal speed: vs control zygotes; for Mean amplitude of after-movements +/- s.d. / Mean amplitude of speed-peaks +/- s.d.: inhibitor-treated zygotes
Protocol: as §1, §2
(§3) DIC images of fertilized eggs were analyzed using custom written software in MATLAB (The Mathworks Inc., Natick, Mass., USA) using algorithms adapted from MatPIV v1.6.150. The algorithm was based on that used in PIV, a standard analysis technique that involves the use of pattern matching techniques based on cross-correlating sub-regions between sequential pairs of images (see Methods in the main text and FIG. 1a). To calculate a displacement for each analysed interrogation region two subsequent PIV iterations were used. First, the displacement was calculated for a larger interrogation area and then it was used as an estimate of where to centre the search area for the next iteration with a smaller interrogation region. […]

mouse zygotes = assay: Immunostaining of microtubules and actomyosin in treated zygotes
Protocol: To examine a correlation between cytoplasmic movements and developmental potential of the embryos, 10 μl of capacitated sperm suspension was added to eggs surrounded by cumulus cells and then gametes were co-incubated for 2 hrs. In experiments testing specificity of inhibitors or involving live imaging of actin and myosin, prior to fertilization eggs were treated shortly with acidic Tyrode's solution (pH=2.5) to remove zonas, then were mixed with approximately 1 μl of capacitated sperm suspension and incubated together for 30 min. In both cases fertilization was performed in fertilization medium supplemented with 4 mg/ml BSA^45. Embryos at 2-cell stage were transfer to oviducts of recipient F1 females mated with vasectomised males on 0.5 dpc. They were dissected on 6.5 dpc or 19.5 dpc.
Embryos were fixed in 4% PFA and permeabilised as described before^41. Embryos were scanned using an inverted confocal microscope (Zeiss LSM 510 Meta).
In more detail, embryos were fixed in 4% PFA (30 min, RT or 4° C. overnight), permeabilised with 0.2-0.5% Triton-X100 (30 min, RT) and blocked with 3% BSA or 10% FCS. Subsequently, they were stained with following antibodies and dyes: […]

fertilized mouse eggs [3] = assay: Formation and maintenance of the fertilization cone (FC) in inhibitor-treated zygotes
Protocol: as §1, §2

mouse eggs [4] = assay: Cytoplasmic movements and Ca2+ transients in eggs parthenogenetically activated with SrCl2
Protocol: as §1
as §2, with “The peak of the cross-correlation coefficient distribution gave the most likely location in the second image of the material in the interrogation region in the first image. This was then used to calculate the displacement vector over the time between images (FIG. 1A).” left out
as §3, with “The algorithm was based on that used in PIV, a standard analysis technique that involves the use of pattern matching techniques based on cross-correlating sub-regions between sequential pairs of images (see Methods in the main text and FIG. 1a).” left out

mouse eggs [5] = assay: Cytoplasmic movements in eggs injected with heat-inactivated sperm heads (ICSI) and activated with SrCl2; details: for Mean amplitude of after-movements +/- s.d. / Mean amplitude of speed-peaks +/- s.d.: ICSI with the inactivated sperm and SrCl2 activation
Protocol: as §1, §2
ICSI was carried out as previously described^49 using Leica micromanipulators and Leica inverted microscope. In some experiments heat-inactivated sperm (30 min in 60° C.) was used instead of freshly isolated sperm. The sperm suspension was mixed with M2 medium containing 10% polyvinylpyrrolidone (PVP, Mr=360 kDa). Sperm were delivered into the oocytes' cytosol using a piezo micropipette-driving unit (IntraCel PMAS-CT150, PrimeTech, Japan).

[6] = treated zygotes, control zygotes 9.0 +/- 1.9
[7] = Stage 1 prolonged, activation with SrCl2

CC(=O)OCOC(=O)CN(CC(=O)OCOC(C)=O)c1ccccc1OCCOc1ccccc1N(CC(=O)OCOC(C)=O)CC(=O)OCOC(C)=O [BAPTA, BAPTA-AM]
Zygotes that extruded 2PB (%) [1]: (66.7) % | Zygotes that failed to extrude 2PB (%) [1]: (33.3) % | effect on speed-peaks (fertilized mouse eggs [2]): suppressed high amplitude speed-peaks | elevation of mean basal cytoplasmic speed (fertilized mouse eggs [2]; more than controls, 21 fertilized eggs): 1.7 fold | Mean basal cytoplasmic speed +/- s.d. (fertilized mouse eggs [2]; [6]): 15.3 +/− 3.3* nm/s | effect on cytoskeleton by staining (mouse zygotes): disrupted microtubules

C=C1[C@@H](C)[C@H]2[C@H](Cc3ccccc3)NC(=O)[C@]23[C@H](OC(C)=O)/C=C/[C@@](C)(O)C(=O)[C@@H](C)C/C=C/[C@H]3[C@@H]1O [Cytochalasin D, cytochalasin D]
zygotes in which FCs did not form (fertilized mouse eggs [3]; 20/21 zygotes): 95% | Zygotes that failed to extrude 2PB (%) [1]: (100) % | effect on speed-peaks (fertilized mouse eggs [2]): dramatically abolished speed-peaks | zygotes in which unfocused, low-amplitude speed-peaks were recorded (fertilized mouse eggs [2]; 2 out of 21 analyzed zygotes): 9.5% | Mean basal cytoplasmic speed +/- s.d. (fertilized mouse eggs [2]; [6]): 3.1 +/− 0.6* nm/s | decrease in basal speed (fertilized mouse eggs [2]): ~3 fold

C/C1=C\[C@H](C)C[C@H](C)OC(=O)C[C@H](c2ccc(O)cc2)NC(=O)[C@@H](Cc2c(Br)[nH]c3ccccc23)N(C)C(=O)[C@H](C)NC(=O)[C@@H](C)C1 [Jasplakinolide, jasplakinolide]
effect on formation and/or maintenance of the FCs (fertilized mouse eggs [3]): still permitted formation and/or maintenance of FCs | Zygotes that failed to extrude 2PB (%) [1]: (100) % | effect on speed-peaks (fertilized mouse eggs [2]): amplitudes were significantly lower than in controls | Mean amplitude of after-movements +/- s.d. (fertilized mouse eggs [2]; Stage 1): 5.2 ± 2.1 nm/s | Mean amplitude of speed-peaks +/- s.d. (fertilized mouse eggs [2]; Stage 1): 20.9 ± 10.1 nm/s | Mean amplitude of after-movements +/- s.d. (fertilized mouse eggs [2]; Stage 2): 4.2 +/− 1.9^|| nm/s | Mean amplitude of speed-peaks +/- s.d. (fertilized mouse eggs [2]; Stage 2): 14.5 +/− 8.3^|| nm/s | Mean amplitude of after-movements +/- s.d. (fertilized mouse eggs [2]; Stage 3): 3.8 +/− 2.8^|| nm/s | Mean amplitude of speed-peaks +/- s.d. (fertilized mouse eggs [2]; Stage 3): 10.8 ± 7.6 nm/s | Mean basal cytoplasmic speed +/- s.d. (fertilized mouse eggs [2]; [6]): 3.0 +/− 0.4* nm/s | decrease in basal speed (fertilized mouse eggs [2]): ~3 fold | effect on cytoskeleton by staining (mouse zygotes): formation of a thicker cortical layer of actin

O=S(=O)(c1cccc2c(I)cccc12)N1CCCNCC1 [ML-7]
embryos in which FCs were present (fertilized mouse eggs [3]; 10/17 embryos): 58.8% | Zygotes that extruded 2PB (%) [1]: (69.2) % | Zygotes that failed to extrude 2PB (%) [1]: (30.8) % | zygotes in which cytoplasmic speed oscillations were blocked (fertilized mouse eggs [2]; 16/17 zygotes): 94.1% | Mean basal cytoplasmic speed +/- s.d. (fertilized mouse eggs [2]; A - mean basal velocity before M-phase/interphase transition): A. 5.1 +/− 1.3*^,‡ nm/s | Mean basal cytoplasmic speed +/- s.d. (fertilized mouse eggs [2]; B - mean basal velocity after M-phase/interphase transition): B. 8.3 +/− 1.1^†,‡ nm/s

COC(=O)Nc1nc2ccc(C(=O)c3cccs3)cc2[nH]1 [Nocodazole, nocodazole]
effect on formation and/or maintenance of the FCs (fertilized mouse eggs [3]): had no effect upon either formation and/or maintenance of the FCs | Zygotes that extruded 2PB (%) [1]: (41.7) % | Zygotes that failed to extrude 2PB (%) [1]: (58.3) % | effect on speed-peaks (fertilized mouse eggs [2]): neither nocodazole-induced depolymerisation nor taxol-induced stabilisation of microtubules inhibited speed-peaks | Mean amplitude of after-movements +/- s.d. (fertilized mouse eggs [2]; Stage 1): 11.1 ± 3.9 nm/s | Mean amplitude of speed-peaks +/- s.d. (fertilized mouse eggs [2]; Stage 1): 20.6 ± 11.2 nm/s | Mean amplitude of after-movements +/- s.d. (fertilized mouse eggs [2]; Stage 2): 16.6 +/− 6.8^¶ nm/s | Mean amplitude of speed-peaks +/- s.d. (fertilized mouse eggs [2]; Stage 2): 35.2 +/− 19.3^§ nm/s | Mean amplitude of after-movements +/- s.d. (fertilized mouse eggs [2]; Stage 3): 21.5 +/− 6.7^|| nm/s | Mean amplitude of speed-peaks +/- s.d. (fertilized mouse eggs [2]; Stage 3): 10.4 ± 8.5 nm/s | Mean basal cytoplasmic speed +/- s.d. (fertilized mouse eggs [2]; [6]): 11.0 +/− 1.5* nm/s

[Cl-].[Cl-].[Sr+2] [SrCl2]
delay of speed peaks with respect to the onset of the Ca2+ transient (mouse eggs [4]): 10 to 30 s | Ca2+ transients accompanied by speed peaks (mouse eggs [4]; 133/444 transients, n=47 eggs): 30% | Ca2+ transients with after-movements present (mouse eggs [4]; 341/444 transients): 76.8% | Mean amplitude of after-movements +/- s.d. (mouse eggs [4]; [7]): 7.7 +/− 2.9^#,** nm/s | Mean amplitude of speed-peaks +/- s.d. (mouse eggs [4]; [7]): 7.4 +/− 4.0^#,||,¶ nm/s | lag of speed-peaks and FC pulsations after peaks of Ca2+ transients (mouse eggs [5]): 10 to 30 s | Ca2+ transients accompanied by speed-peaks (mouse eggs [5]; 48/79 transients, Stage 2, FCs present, n=25): 60.8% | Mean amplitude of after-movements +/- s.d. (mouse eggs [5]; Stage 1): 7.9 ± 3.0 nm/s | Mean amplitude of speed-peaks +/- s.d. (mouse eggs [5]; Stage 1): 8.8 +/− 8.8^|| nm/s | Mean amplitude of after-movements +/- s.d. (mouse eggs [5]; Stage 2): 10.1 +/− 3.5^#,‡‡ nm/s | Mean amplitude of speed-peaks +/- s.d. (mouse eggs [5]; Stage 2): 8.6 +/− 5.4^# nm/s | Mean amplitude of after-movements +/- s.d. (mouse eggs [5]; Stage 3): 13.0 ± 7.0 nm/s | Mean amplitude of speed-peaks +/- s.d. (mouse eggs [5]; Stage 3): 7.1 +/− 4.3^# nm/s

CC(=O)O[C@H]1C(=O)[C@@]2(C)[C@H]([C@H](OC(=O)c3ccccc3)[C@]3(O)C[C@H](OC(=O)[C@H](O)[C@@H](NC(=O)c4ccccc4)c4ccccc4)C(C)=C1C3(C)C)[C@]1(OC(C)=O)CO[C@@H]1C[C@@H]2O [Taxol, taxol]
effect on formation and/or maintenance of the FCs (fertilized mouse eggs [3]): had no effect upon either formation and/or maintenance of the FCs | Zygotes that failed to extrude 2PB (%) [1]: (100) % | effect on speed-peaks (fertilized mouse eggs [2]): neither nocodazole-induced depolymerisation nor taxol-induced stabilisation of microtubules inhibited speed-peaks | Mean amplitude of after-movements +/- s.d. (fertilized mouse eggs [2]; Stage 1): 7.9 ± 4.3 nm/s | Mean amplitude of speed-peaks +/- s.d. (fertilized mouse eggs [2]; Stage 1): 18.0 +/− 5.0^¶ nm/s | Mean amplitude of after-movements +/- s.d. (fertilized mouse eggs [2]; Stage 2): 11.1 ± 5.3 nm/s | Mean amplitude of speed-peaks +/- s.d. (fertilized mouse eggs [2]; Stage 2): 29.9 +/− 21.0^¶ nm/s | Mean amplitude of after-movements +/- s.d. (fertilized mouse eggs [2]; Stage 3): 14.3 +/− 5.8^¶ nm/s | Mean amplitude of speed-peaks +/- s.d. (fertilized mouse eggs [2]; Stage 3): 11.5 ± 6.5 nm/s | Mean basal cytoplasmic speed +/- s.d. (fertilized mouse eggs [2]; [6]): 7.7 +/− 1.7^§ nm/s
